Experimental data: PMC8231572, “New Heparanase-Inhibiting Triazolo-Thiadiazoles Attenuate Primary Tumor Growth and Metastasis” (Cancers, 2021)
“Also recorded” adds a separate entry of the source.

Columns and labels:
[1] = target: T1, heparanase (Homo sapiens, UniProt Q9Y251); experiment: Colorimetric heparanase assay (fondaparinux/Arixtra cleavage, WST-1); assay type: biochemical; settings: fondaparinux substrate, heparanase 140 pM, pH 5.0, 37 °C, 18 h; for IC50: read-out: IC50, inhibition of heparanase enzymatic activity (converted)
T1 sequence (Q9Y251 158-543 limits assumed): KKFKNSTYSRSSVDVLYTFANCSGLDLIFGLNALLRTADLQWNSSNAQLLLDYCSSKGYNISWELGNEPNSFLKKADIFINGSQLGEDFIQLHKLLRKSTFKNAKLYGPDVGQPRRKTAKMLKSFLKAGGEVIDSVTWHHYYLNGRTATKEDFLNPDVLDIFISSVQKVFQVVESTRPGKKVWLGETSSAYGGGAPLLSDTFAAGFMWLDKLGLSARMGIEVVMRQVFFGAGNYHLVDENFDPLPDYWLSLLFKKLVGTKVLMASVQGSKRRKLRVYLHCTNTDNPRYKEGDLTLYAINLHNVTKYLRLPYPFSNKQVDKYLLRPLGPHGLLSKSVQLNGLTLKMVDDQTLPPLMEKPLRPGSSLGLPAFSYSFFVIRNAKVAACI
T1 sequence (Q9Y251 36-109 limits assumed): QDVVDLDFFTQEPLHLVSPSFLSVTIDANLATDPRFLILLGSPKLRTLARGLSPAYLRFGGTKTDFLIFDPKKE
Protocol: The assay was carried out in a 96-well plate in which the formation of the disaccharide product upon cleavage of fondaparinux (Arixtra, GlaxoSmithKline, Brentford, UK) was estimated using WST-1 tetrazolium salt as described earlier. In brief, the reaction system (100 μL) comprised sodium acetate buffer (pH 5.0, 40 mM) and fondaparinux ([…]) with or without different doses of chemicals under investigation. The assay was initiated by the addition of recombinant heparanase to make the final concentration of 140 pM. The reaction vessels were placed at 37 °C for 18 h, followed by the addition of stop solution (100 μL). WST-1 prepared in 0.1 M NaOH served as a stop solution. Thereafter, the plates were incubated at 60 °C for 60 min, and absorbance was measured at 584 nm. N-(4-([4-(1H-Benzoimidazol-2-yl)-arylamino]-methyl)-phenyl)-benzamide (compound #98) was used as a reference compound. The title compounds were examined for their inhibitory efficacy towards heparanase at 10 and 50 μg/mL. Compounds that yielded inhibition at these concentrations were further tested at lower concentrations to determine their IC50.
The newly synthesized compounds presented in Table 1 were examined for their ability to inhibit the enzymatic activity of recombinant heparanase. For the initial screening of compounds, we applied a colorimetric assay based on the cleavage of the synthetic heparin pentasaccharide fondaparinux (Arixtra). The assay measures the appearance of a disaccharide product of heparanase-catalyzed fondaparinux cleavage, using the tetrazolium salt WST-1 [23]. All compounds were first tested for inhibition of heparanase at 10 and 50 μg/mL (not shown). Compounds that yielded inhibition at these high concentrations were further examined at lower concentrations to determine their IC50 (Figure 2).

[2] = target: T1, heparanase; experiment: ECM degradation heparanase assay (sulfate-labeled ECM, Sepharose 6B gel filtration); assay type: biochemical; settings: heparanase 200 ng, 5 h; for inhibition of heparanase activity (ECM degradation): 5 µg/mL compound; for inhibition at 25 µg/mL: 25 µg/mL compound
Protocol: ECM degradation heparanase assay was carried out as reported earlier. Briefly, ECM labeled with sulfate [^35S] [25] and coating the surface of 35-mm cultures plates was treated with heparanase (200 ng/mL) with or without compounds under investigation. The medium was collected to examine the cleavage of HS proteoglycans and subjected to molecular sieving on Sepharose 6B columns. The radioactivity was measured in the eluted fractions (0.2 mL). Blue dextran and phenol red were used to mark the excluded volume (Vo) and included volume (Vt), respectively. The cleaved HS chains were eluted at 0.5 < Kav < 0.8 (fractions 16–32), and the nearly intact proteoglycan was eluted with the void volume.
To validate the results and better resemble the in vivo situation, we applied metabolically sulfate [Na2^35SO4] labeled extracellular matrix (ECM) deposited by cultured endothelial cells. This naturally produced substrate closely resembles the subendothelial basement membrane in its composition, biological function, and barrier properties. […] This semi-quantitative assay measures release of radioactive heparan sulfate (HS) degradation fragments from an insoluble extracellular matrix (ECM) that is firmly bound to a culture dish.
(§1) Figure 3 Inhibition of ECM degradation and cell invasion. (A) ECM degradation. Active heparanase (200 ng) was incubated for 5 h without (red) or with 5 and 25 µg/mL of 4-CMI, 4-MDI, or 4-MMI on dishes coated with sulfate-labeled ECM. Labeled material released from the ECM was subjected to gel filtration (Sepharose 6B). Heparan sulfate degradation fragments are typically eluted in fractions 18–30. (B) Cell invasion. U87 human glioma cells (2 × 10^5) were plated onto Matrigel-coated 8 μm transwell filters and incubated (6 h, 37 °C) in the absence (Con) or presence of 4-MMI or 4-CMI (10 µg/mL). (C) Dose–response showing the effect of compound 4-MMI (2.5, 10, and 40 µg/mL) on U87 cell invasion. Invading cells adhering to the lower side of the membrane were visualized (top panels) and quantified (bottom panel) in 7 random fields as described in ‘Materials and Methods’.

[3] = tested on: U87 human glioma cells; experiment: Cell invasion through Matrigel-coated transwell filters (Boyden chambers); assay type: cell-based; settings: 10 µg/mL, 6 h, 37 °C, Matrigel-coated 8 μm transwell filters
Protocol: Invasion assay was performed using Boyden chambers as reported previously. Briefly, U87 cells (5 × 10^5) were seeded into the upper chamber of the invasion chamber in a medium devoid of serum, and the lower chamber contained media supplemented with serum. The cell invasion on treatment with title compounds (4-MMI, 4-CMI; […]) was analyzed by staining with 0.5% crystal violet (Sigma-Aldrich) and photographed.
as §1

[4] = tested on: 4T1 mouse breast carcinoma cells; experiment: 4T1 breast carcinoma experimental metastasis, IVIS bioluminescence imaging; assay type: in vivo, BALB/c mice; settings: IVIS day 13
Protocol: 4TI mouse breast cancer cells tagged with luciferase (1.5 × 10^5/0.1 mL/BALB/c mouse) were inoculated intravenously. Test compounds (i.p., 500 μg/mouse) or DMSO (0.1 mL/mouse) were administered 20 min before cell injection. The mice were analyzed using IVIS bioluminescent on day 7 and day 13 post-inoculation. These cells metastasize primarily to the lungs.
The bioluminescence imaging of tumors generated from luciferase-expressing cancer cells was carried out using a highly sensitive, cooled charge-coupled device camera assembled in a specimen box (IVIS; Xenogen Corp, Hopkinton, MA, USA). The imaging has advantages such as real-time capture, non-invasive, and quantitative values. For this, the tumor-bearing mice were intraperitoneally administered with a luciferase substrate D-luciferin at a dose of 150 mg/kg body weight. The experimental animal was anesthetized and kept in a camera box followed by continuous exposure to isoflurane (EZAnesthesia, Palmer, PA, USA). The bioluminescence from the tumor mass was detected by the IVIS system, and, subsequently, the tumor burden was quantified using Living Image software (Xenogen).
Figure 4 Inhibition of 4T1 breast carcinoma experimental metastasis. […] Quantification of the luciferase intensities is shown graphically in the lower panel, as described in ‘Section 2. […]

[5] = tested on: MPC-11 mouse myeloma cells; experiment: MPC-11 syngeneic myeloma tumor growth; assay type: in vivo
Protocol: The mouse myeloma (MPC-11) cells were gently washed with PBS and the cell number was adjusted to 5 × 10^6 cells/mL. Thereafter, six-week-old female BALB/c mice (n = 6) were subcutaneously injected with washed MPC-11 cells (5 × 10^5/0.1 mL). The experimental animals were treated with either DMSO alone (0.1 mL/mouse) or 4-MMI (daily 200 μg/mouse, i.p.) starting from day 2 after the implantation of tumor cells, for 12 days. The tumor size was measured using calipers on day 8 and day 12. The tumor volume (V) was determined using the equation V = L × W^2 × 0.52, where L is the length and W is the width of the tumor. Lastly, the mice were euthanized and xenograft tumors were removed, weighed, and fixed using formalin for further studies.
Figure 5 MPC-11 tumor growth. Cells (MPC-11 mouse myeloma) from exponential cultures were washed with PBS and brought to a concentration of 5 × 10^6 cells/mL. Cell suspension (5 × 10^5/0.1 mL) was inoculated subcutaneously at the right flank of 6-week-old female BALB/c mice (n = 6). Mice were treated with either DMSO (0.1 mL/mouse) or test compound (daily 200 µg/mouse, i.p.), starting on day 2 after the injection of tumor cells, for 12 days. Tumor size was determined on days 8 and 12 by externally measuring the tumors in two dimensions using a caliper (A, p < 0.001). […]

[6] = tested on: VEGF; experiment: Immunostaining of MPC-11 tumor sections with anti-VEGF antibodies; assay type: in vivo, BALB/c mice; settings: tumors of mice treated daily with 200 μg/mouse i.p.
Protocol: Next, we examined the capacity of compound 4-MMI to inhibit myeloma primary tumor growth. For this purpose, we applied the MPC-11 syngeneic myeloma model. Briefly, BALB/c mice were implanted subcutaneously with MPC-11 mouse myeloma cells (0.5 × 10^6/mouse) and treated with either DMSO (0.1 mL/mouse) or 4-MMI (daily 200 μg/mouse, i.p.), starting on day two after tumor cell inoculation. Xenograft Tumor size was measured on days 8 and 12 (Figure 5A), resected, and weighed (Figure 5B) (see also Figure S2).
Figure S2. MPC-11 tumor growth. MPC-11 cells were inoculated subcutaneously at the right flank of 6-weeks old female Balb/C mice (n=6). Mice were treated with either DMSO (0.1 ml/mouse) or 4-MMI (daily 200 μg/mouse, i.p.) starting on day 2 after the injection of tumor cells, for 12 days. Tumor size was determined on days 8 and 12 (left panel). At the end of the experiment, mice were sacrificed and the tumors were resected and weighed (right panel). For more detail see figure 5.
Figure S3. Immunostaining. Tumors produced by untreated (control) a nd 4-MMI treated Balb/c mice were removed (day 13), fixed and embedded in paraffin. Five micron sections were subjected to immunostaining applying anti-VEGF antibodies. Shown are representative images (original magnification x100). […]

[7] = tested on: tumor cell; parameters: method as in PMID 28359266; settings: cited from earlier work

Oc1ccc(I)cc1-c1nn2c(-c3ccc(Cl)cc3)nnc2s1 [4-CMI, 2-(3-(4-chlorophenyl)-[1,2,4]triazolo[3,4-b][1,3,4]thiadiazol-6-yl)-4-iodophenol]
IC50 [1]: 6.6 µM | inhibition of heparanase activity (ECM degradation) [2]: little or no inhibition | inhibition at 25 µg/mL [2]: 50 to 70% | invasion capacity of U87 cells [3]: significantly inhibited

Roneparstat [reference compound]
inhibition of 4T1 experimental metastasis (luciferase intensity) ([4]; positive control 150 µg/mouse i.p. 20 min before i.v. cell inoculation): comparable

N-(4-([4-(1H-Benzoimidazol-2-yl)-arylamino]-methyl)-phenyl)-benzamide [Compound #98, reference compound]
IC50, inhibition of heparanase enzymatic activity [1]: 0.7 µg/mL

Cc1ccc(-c2nnc3sc(-c4cc(I)ccc4O)nn23)cc1 [4-MMI, 4-iodo-2-(3-(p-tolyl)-[1,2,4]triazolo[3,4-b][1,3,4]thiadiazol-6-yl)phenol]
inhibition of 4T1 experimental metastasis (extravasation and lung colonization, luciferase intensity) ([4]; 500 μg/mouse i.p. 20 min before i.v. cell inoculation): inhibited the extravasation of 4T1 cells and their subsequent colonization in the mouse lungs; also recorded: nearly fourfold inhibition | tumor growth and tumor burden (tumor size days 8 and 12, tumor weight) ([5]; daily 200 μg/mouse i.p. from day 2 for 12 days, s.c. MPC-11 tumors): effectively and markedly decreased the rate of tumor growth and the tumor burden; also recorded: profound inhibition of tumor growth and burden | signs of distress and toxicity ([5]; daily administration of 200 ug/mouse/day): no signs of distress and toxicity | VEGF levels in tumor sections [6]: marked decrease in the levels of VEGF; also recorded: profound reduction in VEGF levels | IC50 [1]: 7.14 µM | inhibition of heparanase activity (ECM degradation) [2]: little or no inhibition | inhibition at 25 µg/mL [2]: 50 to 70% | invasion capacity of U87 cells [3]: significantly inhibited

Cc1ccc(-c2nnc3sc(-c4cc(I)cc(I)c4O)nn23)cc1 [4-MDI, 2,4-diiodo-6-(3-(p-tolyl)-[1,2,4]triazolo[3,4-b][1,3,4]thiadiazol-6-yl)phenol]
IC50 [1]: 22.3 µM | inhibition of heparanase activity (ECM degradation) [2]: little or no inhibition | inhibition at 25 µg/mL [2]: 50 to 70%

Oc1c(I)cc(I)cc1-c1nn2c(-c3ccccc3)nnc2s1 [DTP, 2,4-Diiodo-6-(3-phenyl-[1,2,4]triazolo[3,4-b][1,3,4]thiadiazol-6yl)phenol, reference compound]
IC50 [1]: 54.9 µM | IC50 values, inhibition of tumor cell proliferation, migration, and invasion in vitro [7]: micromolar range
